Reference: patent US7888293B2, “Compositions and methods relating to orthogonal ribosome mRNA pairs” (priority 2005, dated 2011)

What was measured:
Type in all cases: cell-based, E. coli
O-mRNA-Aα and O-mRNA-Cα = assay: Boolean OR gate, β-galactosidase FDG fluorescence; details: OR gate, DH10B
O-mRNA-Cα and O-mRNA-Aω = assay: Boolean AND gate, β-galactosidase FDG fluorescence; details: BW26444 cells
Procedure: The AND function was created in BW26444 cells, which are deleted in lacZ. Their genotype is (Δ(araD-araB)567, Δ(lacA-lacZ)519(::FRT), laclp-4000(lacl^Q), λ^−, rpoS396(Am), rph-1, Δ(rhaD-rhaB)568, hsdR514). Heat shock competent BW26444 cells containing the logic gate plasmid were prepared by standard CaCl2 treatment, and combinations of rRNA inputs accessed by double transformation. Transformed cells were recovered in SOB with 2% glucose and transferred to LB agar containing 2% glucose, 50 μg ml^−1 ampicillin, 25 μg ml^−1 kanamycin, 12.5 μg ml^−1 tetracycline and incubated (16 h, 37° C.). Individual colonies were transferred to each well of a 96 well culture block containing 100 μl of media (LB containing 2% glucose, 50 μg ml^−1 ampicillin, 25 μg ml^−1 kanamycin, 12.5 μg ml^−1 tetracycline) and grown overnight. Cells were pelleted by centrifugation (3000 g, 5 min) and resuspended in 1 ml of LB containing 50 μg ml^−1 ampicillin, 25 μg ml^−1 kanamycin, 12.5 μg ml^−1 tetracycline. After a further 1 h incubation (37° C., 250 rpm) cells were supplemented with isopropyl-β-D-thiogalactopyranoside (to 1 mM), and incubated (37° C., 250 rpm, 4 h) and the OD600 measured. […] An equal volume of 2× buffer Z (120 mM Na2HPO4, 80 mM NaH2PO4, 20 mM KCl, 2 mM MgSO4, 100 mM β-mercaptoethanol) containing fluorescein di-β-D-galactopyranoside (Molecular Probes, final concentration 0.5 mM) was added and incubated (22° C.) until a strong fluorescent signal was detected (approximately 5 min). […] Fluorescence was detected using a Spectra Max Gemini XS (Molecular Devices), with excitation at […] and emission detection at 450 nm.
Fluorescence was normalized for cell density and time of incubation with β-galactosidase substrate, using the equation: Fluorescence=1000×(raw fluorescence450 nm)/(t.V.OD600) Where (t) is time of incubation in seconds and (V) is the volume of culture used. […]
Cells containing a plasmid encoding both O-mRNA-Cα and O-mRNA-Aω were programmed with either wild-type rRNA, rRNA-A, rRNA-C or rRNA-C and rRNA-A together, and the conversion of FDG to fluorescein measured. […]

O-mRNA-Ccat = assay: Translation of cat from O-mRNA-Ccat, chloramphenicol resistance, compatible rRNA plasmids
From the text: The RSF rRNA expression plasmid was derived from the previously described Col E1 expression plasmid (pTrc16S23S; Rackham & Chin, 2005, Nature Chem. Biol. 1: 159-166). The RSF1030 replicon, containing a kanamycin resistance gene, was amplified by PCR from pRSFDuet-1 (Novagen) using the oligonucleotides 5′-[…]-3′(SEQ ID NO: 120) and 5′-[…]-3′ (SEQ ID NO: 121). The resulting PCR product was digested with Kpn I and Sph I and used to replace the Kpn I, Sph I replicon-containing portion of pTrc 16S23S ribosome plasmids. CAT activity assays for orthogonal ribosome activity were performed as described in Rackham & Chin, 2005, supra).
One vector for rRNA production has a ColE1 origin of replication and an ampicillin resistance gene and is present at about 50 copies per cell. A second vector for rRNA production has an RSF origin of replication and a kanamycin resistance gene, and is present at about 100 copies per cell. […] To ascertain the effect of plasmid flanking sequences and plasmid copy number on the activity of the O-ribosomes incorporating plasmid-encoded rRNA, the translation of the chloramphenicol acetyl transferase gene (cat) from O-mRNA-Ccat (a version of cat with the 5′ orthogonal ribosome binding site C) was measured. […]

Substance	fluorescence (O-mRNA-Aα and O-mRNA-Cα)	fluorescence (conversion of FDG to fluorescein) (O-mRNA-Cα and O-mRNA-Aω)	fluorescence signal above background (O-mRNA-Aα and O-mRNA-Cα) [fold]	IC50 chloramphenicol resistance (O-mRNA-Ccat; ColE1 plasmid) [µg/mL]	IC50 chloramphenicol resistance (O-mRNA-Ccat; RSF plasmid) [µg/mL]
wild-type rRNA: wild-type 16S rRNA, SEQ ID NO:116, plasmid-encoded control input (AUCACCUCCUUA; listed as Escherichia coli) [reference compound]	comparable to that observed in the absence of plasmid-encoded a fragment	low fluorescence			
rRNA-A: O-rRNA-A, SEQ ID NO:125, orthogonal 16S rRNA cognate to O-mRNA-A; probably rRNA-2 (AUCACUGUGGUA; expressed or natural sequence)		low fluorescence	10		
rRNA-C: O-rRNA-C, SEQ ID NO:129, orthogonal 16S rRNA cognate to O-mRNA-C; probably rRNA-9 (AUCAUGGGAUUA; expressed or natural sequence)		low fluorescence	15	150	250
